Measured values reported in patent US20260294915A1, “COMBINATION THERAPY COMPRISING A MAT2A INHIBITOR AND A TOPOISOMERASE INHIBITOR, A SPLICING INHIBITOR SULFONAMIDE, OR A KIF18 INHIBITOR” (IDEAYA BIOSCIENCES, INC., priority 2023, published 2026).
Structures can show the parent of a compound that is named as a salt.

How the values were obtained:
NCI-H520 = assay: 10-day proliferation (CTG), equimolar Compound A + SPLAM (Example 4); assay type: cell-based; conditions: single agent or 1:1 combo
Procedure: (§1) A 10-day proliferation assay was performed in a panel of 5 MTAP-deficient and 2 wild type non-small cell lung and bladder cancer cell lines. Optimal cell seeding for all cell lines was determined by assessing the growth over a range of seeding densities in a 384-well format to identify conditions that permitted proliferation for 10 days. Cells were then plated at the optimal seeding density and treated with 20-point, two-fold dilution series of Compound A, the splicing inhibitor sulfonamide (SPLAM), or an equimolar combination of Compound A and the SPLAM. Combinations tested included Compound A in combination with four structurally different SPLAMs. Concentrations tested for Compound A and each SPLAM alone or in combination ranged from 0.04 nM to 20,000 nM. A plate of cells was harvested at the time of compound addition to quantify the number of cells at the start of the combination (T0). For cell quantification, the harvested cells were lysed with Promega CellTiter-Glo (CTG) reagent according to the manufacturer's protocol and the chemiluminescent signal was detected on a Synergy Neo plate reader. CTG estimates cell number through detection of cellular ATP levels. Cells were incubated with the drug combinations at 37° C. with 5% CO2 for 10 days. Cells were then lysed with CTG and the chemiluminescent signal was measured.
(§2) CTG values obtained after the 10-day treatment were background subtracted and expressed as a percent of the T0 value. Data were plotted against compound concentration and fit with a four-parameter equation to generate dose response curves for each single agent and the equimolar combination. Growth ICx (gICx) values ranging from gIC30 to gIC100 were interpolated from the fitted curves. Synergistic growth inhibition was assessed by determination of Combination Index (CI) values at these various points across the titration using the mutually non-exclusive equation [Chou, 1983; Chou, 1981] shown below where A equals the gICx value of Compound A, B equals the gICx value of the SPLAM, and A+B or B+A equals the gICx value of the equimolar combination. A Combination Index value less than 1.0 was considered synergistic.

RT112/84 = assay: as above; assay type: cell-based; conditions: single agent or 1:1 combo
Procedure: as §1, §2

TCCSUP = assay: as above; assay type: cell-based; conditions: single agent or 1:1 combo
Procedure: as §1, §2

SW900 = assay: as above; assay type: cell-based; conditions: single agent or 1:1 combo
Procedure: as §1, §2

UMUC5 = assay: as above; assay type: cell-based; conditions: single agent or 1:1 combo
Procedure: as §1, §2

NCI-H838 = assay: as above; assay type: cell-based; conditions: single agent or 1:1 combo
Procedure: as §1, §2

UMUC11 = assay: as above; assay type: cell-based; conditions: single agent or 1:1 combo
Procedure: as §1, §2

[1] = system: LMSU (RCB1062) human gastric tumor cell-derived xenograft (CDX) models; assay: Anti-tumor activity in LMSU gastric mouse xenograft (CDX) model (Example 9); assay type: in vivo; conditions: 3 days on/4 days holiday; for Day 11 TV (mean): initial TV 185, vehicle 1018
Procedure: (§3) All mouse studies were approved by the Institutional Animal Care and Use Committee (IACUC) based on guidelines from the National Institutes of Health (NIH). Mice were maintained under pathogen-free conditions, and food and water were provided ad libitum.
(§4) The anti-tumor effect of Compound A and irinotecan hydrochloride as single-agents or in combination was assessed in the LMSU (RCB1062) human gastric tumor cell-derived xenograft (CDX) models. LMSU was expanded in HamF10 with 10% fetal bovine serum. Cells were free of mycoplasma and authenticated by STR profiling, and ten million cells in log growth phase were resuspended in Hanks Balanced Salt Solution containing 50% Matrigel and implanted subcutaneously into the flank of each recipient female Crl:NU-Foxn1nu mouse. Mice were housed in microisolator cages with corn cob bedding with additional enrichment consisting of sterile nesting material (Innovive) and Bio-huts (Bio-Serv). Water (Innovive) and diet (Teklad Global 19% Protein Extruded Diet 2919, Irradiated) were provided ad libitum. The environment was maintained on a 12-hour light cycle at approximately 68-72° F. and 40-60% relative humidity.
(§5) Tumor Volume (TV) was calculated using the following formula: TV (mm^3)=(width×width×length)/2. Tumor growth inhibition (TGI) was calculated by [(TV controlfinal−TV treatedfinal)/(TV controlfinal−TV controlinitial)×100]. TV was analyzed for statistical significance utilizing GraphPad Prism version 10.2.2. Repeated Measures 2-Way ANOVA with Dunnet's Multiple Comparisons was utilized, and P-values were derived from data collected on the date of Vehicle group termination and were considered statistically significant if less than 0.05.
(§6) Mean tumor volume at dosing start was approximately 185 mm^3, with seven mice randomized to each treatment group. Mice were dosed orally, once per day, with Vehicle, Compound A at 10 mg/kg, or dosed for 3 consecutive days followed by 4 days holiday by intraperitoneal (IP) injection of Compound B at 5 mg/kg or 10 mg/kg, or combination of Compound A and Compound B. The vehicle group was a combination of Vehicle A (for Compound A, 0.5% 400 cps methylcellulose with 0.5% Tween-80 in sterile water) and Vehicle B (for irinotecan hydrochloride, Saline).

[2] = system: MKN45 (RCB1001) human gastric tumor cell-derived xenograft (CDX) model; assay: Anti-tumor activity in MKN45 gastric mouse xenograft (CDX) model (Example 8); assay type: in vivo; conditions: 3 days on/4 days holiday
Procedure: as §3
as §4, with “MKN45 (RCB1001)” for “LMSU (RCB1062)”, “model. MKN45” for “models. LMSU”, “RPMI1640” for “HamF10”
as §5
as §6, with “190” for “185”, “six” for “seven”

[3] = system: RT112/84 human bladder tumor cell-derived xenograft (CDX) model; assay: Anti-tumor activity in RT112/84 mouse xenograft (CDX) model (Example 7); assay type: in vivo
Procedure: as §3
The anti-tumor effect of Compound A and irinotecan hydrochloride as single-agents or in combination was assessed in the RT112/84 human bladder tumor cell-derived xenograft (CDX) model. Cells were expanded in RPMI-1640 (Gibco, Catalog Number 11875093) with 10% fetal bovine serum. These cells were free of mycoplasma and authenticated by STR profiling. Five million cells in log growth phase were resuspended in Hanks Balanced Salt Solution containing 50% Matrigel and implanted subcutaneously into the flank of each recipient female Crl:NU-Foxnlnu mouse. Mice were housed in microisolator cages with corn cob bedding with additional enrichment consisting of sterile nesting material (Innovive) and Bio-huts (Bio-Serv). Water (Innovive) and diet (Teklad Global 19% Protein Extruded Diet 2919, Irradiated) were provided ad libitum. The environment was maintained on a 12-hour light cycle at approximately 68-72° F. and 40-60% relative humidity.
as §5, with “10.0.3.” for “10.2.2.”, “Tukey's” for “Dunnet's”, “Day 14 (date” for “the date”, “termination)” for “termination”, “0.05. Tumor regression was calculated by using the percent change in tumor volume from the final tumor volume measurement from Day 73 when compared to the initial tumor volume from Day 1. Tumor regression was defined as reduced TV on Day 73 compared to Day 1. Tumor regression rate was defined as the percentage of animals per group with tumor regression.” for “0.05.”
as §6, with “249” for “185”, “ten” for “seven”, “5” for “5 mg/kg or 10”

[4] = irinotecan hydrochloride 5 mg/kg IP
[5] = irinotecan hydrochloride 10 mg/kg IP
[6] = irinotecan hydrochloride 5 mg/kg IP, 3 days on/4 days holiday

## O=C(NS(=O)(=O)c1ccc(Br)s1)c1ccc(Cl)cc1Cl [Tasisulam, N-((5-bromothiophen-2-yl)sulfonyl)-2,4-dichlorobenzamide]
NCI-H520; Homo sapiens, NCI-H520, read-out: gIC50
  IC50: 11.2 µM
NCI-H520
  gIC30: 9.551 µM
  gIC40: 10.354 µM
  gIC60: 12.274 µM
  gIC70: 13.716 µM
  gIC100: 20 µM
NCI-H520; 14400 min, read-out: gIC80
  IC80: 16.4 µM
NCI-H520; 14400 min, read-out: gIC90
  IC90: 12 µM
RT112/84; Homo sapiens, RT112/84, read-out: gIC50
  IC50: 20 µM
RT112/84
  gIC30: 20 µM
  gIC40: 20 µM
  gIC60: 20 µM
  gIC70: 20 µM
  gIC100: 20 µM
RT112/84; 14400 min, read-out: gIC80
  IC80: 20 µM
RT112/84; 14400 min, read-out: gIC90
  IC90: 20 µM
TCCSUP; Homo sapiens, TCC-SUP, read-out: gIC50
  IC50: 20 µM
TCCSUP
  gIC30: 20 µM
  gIC40: 20 µM
  gIC60: 20 µM
  gIC70: 20 µM
  gIC100: 20 µM
TCCSUP; 14400 min, read-out: gIC80
  IC80: 20 µM
TCCSUP; 14400 min, read-out: gIC90
  IC90: 20 µM
SW900; Homo sapiens, SW900, read-out: gIC50
  IC50: 20 µM
SW900
  gIC30: 20 µM
  gIC40: 20 µM
  gIC60: 20 µM
  gIC70: 20 µM
  gIC100: 20 µM
SW900; 14400 min, read-out: gIC80
  IC80: 20 µM
SW900; 14400 min, read-out: gIC90
  IC90: 20 µM
UMUC5
  gIC30: 16.121 µM
  gIC40: 16.834 µM
  gIC60: 18.053 µM
  gIC70: 18.592 µM
  gIC100: 20 µM
UMUC5; 14400 min, read-out: gIC80
  IC80: 19.1 µM
UMUC5; 14400 min, read-out: gIC90
  IC90: 19.6 µM
UMUC5; read-out: gIC50
  IC50: 17.5 µM
NCI-H838; Homo sapiens, NCI-H838, read-out: gIC50
  IC50: 4.93 µM
NCI-H838
  gIC30: 7.419 µM
  gIC40: 4.551 µM
  gIC60: 5.372 µM
  gIC70: 5.923 µM
  gIC100: 20 µM
NCI-H838; 14400 min, read-out: gIC80
  IC80: 6.69 µM
NCI-H838; 14400 min, read-out: gIC90
  IC90: 7.97 µM
UMUC11
  gIC30: 17.77 µM
  gIC40: 18.358 µM
  gIC60: 19.349 µM
  gIC70: 19.781 µM
  gIC100: 20 µM
UMUC11; 14400 min, read-out: gIC80
  IC80: 20 µM
UMUC11; 14400 min, read-out: gIC90
  IC90: 20 µM
UMUC11; read-out: gIC50
  IC50: 18.9 µM

## CCc1c2c(nc3ccc(OC(=O)N4CCC(N5CCCCC5)CC4)cc13)-c1cc3c(c(=O)n1C2)COC(=O)[C@]3(O)CC [irinotecan hydrochloride]
[1]; [4]
  Day 11 TGI: 42%
  Tumor Regression Rate on Day 11: 0%
  Day 11 TV (mean): 671 mm^3
[1]; [5]
  Day 11 TGI: 80%
  Tumor Regression Rate on Day 11: 14%
  Day 11 TV (mean): 353 mm^3
[2]; [4]
  Day 25 TGI: 49%
  Tumor Regression Rate on Day 25: 0%
[2]; irinotecan hydrochloride 5 mg/kg IP, initial TV 190, vehicle 1396
  Day 25 TV (mean): 807 mm^3
[2]; [5]
  Day 25 TGI: 85%
  Tumor Regression Rate on Day 25: 17%
[2]; irinotecan hydrochloride 10 mg/kg IP, initial TV 192, vehicle 1396
  Day 25 TV (mean): 369 mm^3
[3]; Compound A 10 mg/kg oral once per day, irinotecan 5 mg/kg IP 3 days on/4 days off
  TGI: 83%
[3]; day 73, Compound A 10 mg/kg oral, irinotecan 5 mg/kg IP
  response rate (mice with tumor regressions): 30%
[3]; [6]
  Day 14 TGI: 83%
  Tumor Regression Rate on Day 73: 30%
[3]; irinotecan hydrochloride 5 mg/kg IP, 3 days on/4 days holiday, initial TV 249, vehicle 1069
  Day 14 TV (mean): 387 mm^3
